Results reported in patent US11052060B2, “Compounds and methods for treating autoimmunity” (ImmunoMolecular Therapeutics, INC., priority 2018, dated 2021).

What was measured:
[1] = target: insulin/DQ8 (Homo sapiens, UniProt P01909+P01920); experiment: Inhibition of DQ8 antigen presentation to insulin-responsive CD4 TCR transductant (Clone 5), secreted IL-2 by ELISA; format: cell-based; details: for IC50 / Clone 5 IC50 (insulin/DQ8): Clone 5 TCR transductant, HLA-DQ8 antigen presenting cells with insulin peptide, secreted IL-2; for inhibition of an insulin-responsive CD4 T cell receptor (TCR) transductant: FIG. 3A / FIG. 4A, secreted IL-2 by ELISA, result in words
Description: (§1) Inhibition of DQ8 antigen presentation by compounds of this disclosure was tested and compared in vitro. HLA-DQ8 antigen presenting cells were cultured with a fixed concentration of peptide and a concentration of one of the tested compounds for 4 hours. TCR transductants were then added to each culture condition and cultured overnight. Secreted IL-2 from the TCR transductant was measured by ELISA for each condition.
(§2) In these figures, 0 represents the TCR transductant response to peptide without the addition of the test compound.

[2] = target: α-gliadin/DQ8 (Homo sapiens, UniProt P01909+P01920); experiment: Inhibition of DQ8 antigen presentation to gliadin-responsive CD4 TCR transductant (489), secreted IL-2 by ELISA; format: cell-based; details: for IC50 / 489 IC50 (α-gliadin/DQ8): 489 TCR transductant, HLA-DQ8 antigen presenting cells with α-gliadin peptide, secreted IL-2; for inhibition of gliadin-responsive CD4 TCR: FIG. 3B / FIG. 4B, secreted IL-2 by ELISA, result in words
Description: as §1, §2

insulin/DQ8, sequence (P01920 33-261 limits assumed, other chains not shown): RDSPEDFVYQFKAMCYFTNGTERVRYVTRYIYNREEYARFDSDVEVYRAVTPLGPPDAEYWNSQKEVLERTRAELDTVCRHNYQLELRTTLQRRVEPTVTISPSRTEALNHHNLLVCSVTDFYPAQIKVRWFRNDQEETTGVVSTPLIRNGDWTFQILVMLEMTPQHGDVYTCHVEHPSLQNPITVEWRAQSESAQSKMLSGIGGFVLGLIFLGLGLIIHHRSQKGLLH
α-gliadin/DQ8, sequence (P01920 33-261 limits assumed, other chains not shown): as above

SMILES: C[C@@](N)(Cc1ccc(O)c(O)c1)C(=O)O (stereo in doubt) [α-methyldopa, 2-amino-3-(3,4-dihydroxyphenyl)-2-methylpropanoic acid]
- IC50 [1]: 3.4 µM
- inhibition of an insulin-responsive CD4 T cell receptor (TCR) transductant [1]: concentration-dependent inhibition
- IC50 [2]: 17.7 µM
- inhibition of gliadin-responsive CD4 TCR [2]: concentration-dependent inhibition

SMILES: CC(N)[C@H](O)c1ccc(O)c(O)c1 (stereo in doubt) [α-methylnorepinephrine, 4-(2-amino-1-hydroxypropyl)benzene-1,2-diol]
- Clone 5 IC50 (insulin/DQ8) [1]: No inhibition
- 489 IC50 (α-gliadin/DQ8) [2]: No inhibition

SMILES: CC(C)(C)C(N)(Cc1ccc(O)c(O)c1)C(=O)O.Cl (centres unmarked) [Compound F994-0666]
- inhibition of an insulin-responsive CD4 T cell receptor (TCR) transductant [1]: concentration-dependent inhibition
- inhibition of gliadin-responsive CD4 TCR [2]: concentration-dependent inhibition

SMILES: CCOC(=O)C(C)(N)Cc1ccc(O)c(O)c1 (stereo not drawn) [α-methyldopa ethyl ester, Ethyl-2-amino-3-(3,4 dihydroxyphenyl)-2-methylpropanoate]
- IC50 [1]: 5.8 µM
- IC50 [2]: 7.8 µM

SMILES: CC(N)(Cc1ccccc1)C(=O)O (stereo not drawn) [α-methylphenylalanine, 2-amino-2-methyl-3-phenylpropanoic acid]
- Clone 5 IC50 (insulin/DQ8) [1]: No inhibition
- 489 IC50 (α-gliadin/DQ8) [2]: No inhibition

SMILES: CC(N)(Cc1ccc(O)cc1)C(=O)O (stereo not drawn) [α-methyltyrosine, 2-amino-3-(4-hydroxyphenyl)-2-methylpropanoic acid]
- Clone 5 IC50 (insulin/DQ8) [1]: No inhibition
- 489 IC50 (α-gliadin/DQ8) [2]: No inhibition
